Measured values published in patent publication US6358517B1, “Cosmetic compositions containing resveratrol and retinoids” (Unilever Home & Personal Care USA, division of Conopco, priority 1999, dated 2002).

Tests used:
[1] = test system: Cellular Retinoic Acid Binding Protein 2 (CRABP-2); experiment: CRABP-2 expression in human adult skin fibroblasts, Western blot; assay type: cell-based; conditions: for CRABP-2 expression in skin fibroblasts in combination with resveratrol (in words): retinoid combined with resveratrol, summary of Tables 2A and 2B
Protocol: Human adult fibroblasts obtained from sun-protected inner arm of the […] were used. Cells were grown in 1:1 DMEM/Hams F12 media containing 10% FBS, maintained at 37° C. in a 5% CO2 atmosphere under normal atmospheric oxygen tension. Third passage adult fibroblasts were grown in DMEM media with 10% FBS in 12-well plates at a seeding density of 40,000 cells/ml/well. The cells at 80% confluence were rinsed in serum free and phenol red free (PRF) DMEM media twice. Cells were pretreated with resveratrol for 4 hours was conducted and then dosed with retinoids and incubated for a further 48 hours. After the incubation, the wells were washed twice with 1×PBS and the cell monolayer was harvested in 100 μl cell lysis buffer (contained 1×PBS, 1% TritonX, 0.5% sodium deoxycholate, 0.1% SDS containing protease inhibitor (10 mg/ml PMSF in isopropanol, 10 μl/ml). The suspension was spun at 14000 rpm for 10 minutes, the supernatant collected and an aliquot of this supernatant was used for protein quantification. Protein concentration was determined using Pierce protein kit. The remainder of 1 00ul supernatant (cell lysate) was denatured in a mixture of 40 μl sample buffer (NOVEX) and 0.5% Beta mercaptoethanol (BME) and by boiling the sample for 5 minutes.
(§1) Within the cells, retinol and retinoic acid are bound to specific cellular binding proteins. Two of the major proteins are CRABP-1 and CRABP-2 (Roos et al., Pharmacological reviews: 50, 315-333, 1998). These proteins regulate the intracellular concentration of retinoids by acting as either storage or shuttle proteins in retinoid metabolism. The levels of CRABP protein are regulated by the amount of retinoic acid within the cells. Higher cellular levels of retinoids increase the expression of CRABP-2. Therefore, the amount of this protein in the cells, is a measure of the retinoid activity of the cells. Skin cells contain high levels of CRABP-2 both in the epidermis and the dermis. CRABP-2 response to retinoid administration in fibroblasts in vitro is used as a reproducible measure of retinoid bioactivity that predict human skin responses (Elder et al., J. Invest. Dermatol., 106: 517-521, 1996). Increase in CRABP-2 is also associated with increased epidermal differentiation, and dermal retinoid action. Therefore, in these studies we used CRABP-2 expression of fibroblasts and pig skin epidermis as a measure of retinoid activity leading to increased epidermal differentiation (skin conditioning and dry skin benefit) and dermal collagen and extracellular matrix synthesis (antiaging, anti wrinkling benefits).
To measure the levels of CRABP-2 in the fibroblast and pig skin extracts prepared as described above, the cell supernatant was re-suspended in 4×sample buffer and 10% BME, boiled for 5 minutes and used for western blotting. Equal amounts of protein were loaded onto 16% Tris-glycine gels for CRABP-2 protein analysis by SDS-PAGE and Western Immuno-blotting. The gels were transferred to PVDF membranes and Western Blotting was carried out using monoclonal antibodies to CRABP-2 according to standard procedures. The CRABP-2 protein band was visualized in the Western Blots using the chemiluminescence system obtained from Boehringer Mannheim (Indianopolis, Ind.). The bands in the film were quantified by densitometric scanning, the data from triplicate samples were calculated as % of control and expressed in the following tables as % increase over control (with control as 100%) +/− standard deviation. […]

[2] = test system: Cellular Retinoic Acid Binding Protein 2 (CRABP-2); experiment: CRABP-2 expression in pig skin organ culture (epidermis), Western blot; assay type: cell-based; conditions: for effects on CRABP-2 expression (in words): alone, pig skin epidermis, summary of Table 1
Protocol: 7 mm pig skin biopsies were taken, plated in serum free DMEM, and incubated for 2 days. The media was then switched to phenol-red free media. The biopsies were topically treated with resveratrol for 24 hrs in 5 μl ethanol per biopsy. After 24 hours, retinoids were topically applied to the biopsies. The treated biopsies were incubated for 4 days thereafter. After treatment phase, the biopsies were rinsed in 1×phosphate-buffer twice and then frozen at −20° C. for future use. The epidermis and dermis was separated by freezing and scraping off the epidermis. The epidermis was collected and homogenized in lysis buffer (contains 1×PBS, 1% TritonX, 0.5% sodium deoxycholate, 0.1% SDS containing protease inhibitor (10 mg/ml PMSF in isopropanol at 10 μl/ml, Aprotinin 30 μl/ml and 100 mM sodium orthovanadate at 10 μl/ml). This homogenate was then spun at 14000 rpm and the supernatant was collected for determining protein (aliquot of the supernatant for protein determination).
as §1, with “Two of the major proteins are CRABP-1 and CRABP-2 (Roos et al., Pharmacological reviews: 50, 315-333, 1998).” left out, “CRABP-2 response to retinoid administration in fibroblasts in vitro is used as a reproducible measure of retinoid bioactivity that predict human skin responses (Elder et al., J. Invest. Dermatol., 106: 517-521, 1996).” left out
To measure the levels of CRABP-2 in the fibroblast and pig skin extracts prepared as described above, the cell supernatant was re-suspended in 4×sample buffer and 10% BME, boiled for 5 minutes and used for western blotting. […] The gels were transferred to PVDF membranes and Western Blotting was carried out using monoclonal antibodies to CRABP-2 according to standard procedures. The CRABP-2 protein band was visualized in the Western Blots using the chemiluminescence system obtained from Boehringer Mannheim (Indianopolis, Ind.). The bands in the film were quantified by densitometric scanning, the data from triplicate samples were calculated as % of control and expressed in the following tables as % increase over control (with control as 100%) +/− standard deviation.

[3] = Homo sapiens, Skin fibroblast, Table 2A, 100 nM alone, read-out: % of Control
[4] = Table 2B, 10 μM Retinoic acid alone
[5] = Table 2B, 10 μM Resveratrol alone

| SMILES | activity at 0.1 µM [1, 3] [%] | CRAB-2 production ([1]; Table 2A, 100 nM alone) | % as Control ([1]; Table 2B, 1 μM alone) | CRABP-2 production ([1]; Table 2B, 1 μM alone) | % as Control ([1]; Table 3, 100 nM alone) | CRABP-2 production ([1]; Table 3, 100 nM alone) | CRABP-2 expression in skin fibroblasts in combination with resveratrol (in words) [1] | effects on CRABP-2 expression (in words) [2] | further results |
| --- | --- | --- | --- | --- | --- | --- | --- | --- | --- |
| CCCCCCCCCCCCCCCC(=O)OC/C=C(C)/C=C/C=C(C)/C=C/C1=C(C)CCCC1(C)C [Retinyl Palmitate] | 25 | 0.376 +/− 0.11 | 503 +/− 260% | 2.87 +/− 1.48 | 254 +/− 101% | 1.143 +/− 0.45 | not effective | – | – |
| CC1=C(/C=C/C(C)=C/C=C/C(C)=C/C(=O)O)C(C)(C)CCC1 [Retinoic acid] | – | – | – | – | – | – | – | – | activity at 0.001 µM ([1]; Homo sapiens, Skin fibroblast, Table 2A, 1 nM alone, read-out: % of Control): 132%; activity at 0.01 µM ([1]; Homo sapiens, Skin fibroblast, Table 2A, 10 nM alone, read-out: % of Control): 165%; CRAB-2 production ([1]; Table 2A, 1 nM alone): 2.056 +/− 0.50; CRAB-2 production ([1]; Table 2A, 10 nM alone): 2.566 +/− 0.19; % as Control [1, 4]: 574 +/− 60%; CRABP-2 production [1, 4]: 3.27 +/− 0.34; % as Control ([1]; Table 3, 10 nM alone): 266 +/− 80%; CRABP-2 production ([1]; Table 3, 10 nM alone): 1.201 +/− 0.36 |
| CCCCC/C=C\C/C=C\CCCCCCCC(=O)OC/C=C(C)/C=C/C=C(C)/C=C/C1=C(C)CCCC1(C)C [Retinyl Linoleate] | – | 0.88 +/− 0.23 | 112 +/− 75% | – | 253 +/− 127% | 1.141 +/− 0.57 | – | – | % of Control ([1]; Table 2A, 100 nM alone): 57 +/− 14% |
| CC1=C(/C=C/C(C)=C/C=C/C(C)=C/CO)C(C)(C)CCC1 [Retinol] | – | – | 270 +/− 73% | 1.54 +/− 0.41 | 308 +/− 108% | 1.387 +/− 0.49 | effective | significantly higher stimulation | activity at 5 µM ([2]; Sus scrofa, Experiment 2, 5 μM, topical on pig skin biopsies, read-out: CRABP-2, Alone (% of control, control as 100%)): 345% |
| Oc1ccc(/C=C/c2cc(O)cc(O)c2)cc1 [Resveratrol, 5-parahydroxystyryl resorcinol] | – | – | – | – | – | – | – | only minimal, insignificant effects | activity at 50 µM ([2]; Sus scrofa, Experiment 1, 50 μM, topical on pig skin biopsies, read-out: CRABP-2, Alone (% of control, control as 100%)): 143%; activity at 20 µM ([2]; Sus scrofa, Experiment 2, 20 μM, topical on pig skin biopsies, read-out: CRABP-2, Alone (% of control, control as 100%)): 242%; activity at 10 µM ([1]; Homo sapiens, Skin fibroblast, Table 2A, 10 μM alone, read-out: % of Control): 27%; CRAB-2 production ([1]; Table 2A, 10 μM alone): 0.416 +/− 0.12; % as Control [1, 5]: 32 +/− 1%; CRABP-2 production [1, 5]: 0.185 |
| CC(=O)OC/C=C(C)/C=C/C=C(C)/C=C/C1=C(C)CCCC1(C)C [Retinyl Acetate] | 56 | 0.876 +/− 0.20 | 178 +/− 102% | 1.01 +/− 0.58 | 124 +/− 42% | 0.561 +/− 0.19 | – | – | CRABP-2 expression in skin fibroblasts (in words) ([1]; Low levels (100 nm), either alone or in combination with resveratrol): ineffective; CRABP-2 expression in skin fibroblasts (in words) ([1]; higher levels (Table 2B), in the presence of reveratrol): stimulated CRABP-2 expression |
